Data as given in patent US10597391B2, “Urea-containing isoxazole derivatives as FXR agonists and methods of use thereof” (Enanta Pharmaceuticals, Inc., priority 2016, dated 2020).

Molecular target: T1, human FXR (NR1H4) (Homo sapiens, UniProt Q96RI1)
T1 sequence (Q96RI1 1-486): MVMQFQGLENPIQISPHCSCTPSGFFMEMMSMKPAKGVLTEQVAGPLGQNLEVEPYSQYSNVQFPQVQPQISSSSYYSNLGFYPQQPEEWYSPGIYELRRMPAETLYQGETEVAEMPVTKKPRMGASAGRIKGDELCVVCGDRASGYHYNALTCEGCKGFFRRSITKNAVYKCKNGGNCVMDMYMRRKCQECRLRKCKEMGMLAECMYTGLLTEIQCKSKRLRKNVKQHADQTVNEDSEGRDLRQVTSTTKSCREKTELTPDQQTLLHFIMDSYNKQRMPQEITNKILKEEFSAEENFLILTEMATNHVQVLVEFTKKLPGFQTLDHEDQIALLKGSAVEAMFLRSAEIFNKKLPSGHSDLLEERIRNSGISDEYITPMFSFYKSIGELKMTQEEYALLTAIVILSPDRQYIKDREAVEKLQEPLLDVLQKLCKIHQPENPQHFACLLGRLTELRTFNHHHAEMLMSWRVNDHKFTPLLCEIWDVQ
Test: Human FXR (NR1H4) Assay: Gal4 promoter driven luciferase reporter transactivation in CHO cells (Indigo Bioscience kit IB00601)
Type: cell-based
Conditions: for EC50: potency range, Human FXR (NR1H4) reporter assay in CHO cells, read-out: EC50; for Emax: CHO, efficacy normalized to CDCA set as 100%, read-out: Efficacy (%)
Summary of the method: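 CHO reporter cells expressing human NR1H4 with luciferase driven by an FXR-responsive promoter (Gal4 system), run per manufacturer's kit. Compounds applied to plated cells, then incubated a further 22 hours at 37° C. Luciferase luminescence read after detection reagent as a surrogate of FXR activation, giving potency and efficacy.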

Row | Compound | EC50 [nM] | Emax [%]
1 | O=C(O)c1ccc(NC(=O)N2C3CCC2CC(OCc2c(-c4c(Cl)cccc4Cl)noc2C2CC2)C3)cc1F (centres unmarked) [Example 197] | 10 to 100 | 
2 | CC1(S(=O)(=O)NC(=O)c2ccc(NC(=O)N3C4CCC3CC(OCc3c(-c5c(Cl)cccc5Cl)noc3C3CC3)C4)c(F)c2)CC1 (centres unmarked) [Example 693] | 100 to 1000 | 203
3 | O=C(NCCS(=O)(=O)O)c1ccc(NC(=O)N2C3CCC2CC(OCc2c(-c4c(Cl)cccc4Cl)noc2C2CC2)C3)c(F)c1 (centres unmarked) [Example 780] | 100 to 1000 | 0
4 | Cn1cc(-c2cccc(NC(=O)N3C4CCC3CC(OCc3c(-c5c(Cl)cccc5Cl)noc3C3CC3)C4)c2)cn1 (centres unmarked) [Example 13] | < 10 | 
5 | O=C(O)c1ccc(NC(=O)N2C3CCC2CC(OCc2c(C4CCC5(CC4)CC5)noc2C2CC2)C3)cc1-c1ccccc1 (centres unmarked) [Example 293] | 10 to 100 | 
6 | COC(=O)c1ccc(NC(=O)N2C3CCC2CC(OCc2c(-c4c(Cl)cccc4Cl)noc2C2CC2)C3)c(OC)c1 (centres unmarked) [Example 190] | 10 to 100 | 
7 | COC(=O)c1ccc(NC(=O)N2C3CCC2CC(OCc2c(-c4ccccc4OC(F)(F)F)noc2C2CC2)C3)c(F)c1 (centres unmarked) [Example 237] | 100 to 1000 | 
8 | COC(=O)c1cccc(F)c1NC(=O)N1C2CCC1CC(OCc1c(-c3ccccc3OC(F)(F)F)noc1C1CC1)C2 (centres unmarked) [Example 763] | 100 to 1000 | 211
